Laboratory results: US11613522B2, “Herbicidally active 3-phenylisoxazoline-5-carboxamides of tetrahydro- and dihydrofurancarboxamides” (BAYER AKTIENGESELLSCHAFT, priority 2017, dated 2023)

Experiments:
Type in all cases: in vivo
Lolium rigidum [1] = experiment: Post-emergence herbicidal activity against LOLRI; settings: dosage 320 g/ha, rated visually after about 3 weeks
Description: (§1) [table] Seeds of monocotyledonous and dicotyledonous weeds and crop plants are placed in sandy loam in plastic or wood-fiber pots, covered with soil and cultivated in a greenhouse under controlled growth conditions. 2 to 3 weeks after sowing, the test plants are treated at the one-leaf stage. The compounds of the invention, formulated in the form of wettable powders (WP) or as emulsion concentrates (EC), are then sprayed onto the green parts of the plants as aqueous suspension or emulsion with addition of 0.5% additive at a water application rate of 600 l/ha (converted). After the test plants had been kept in the greenhouse under optimum growth conditions for about 3 weeks, the activity of the preparations is rated visually in comparison to untreated controls. For example, 100% activity=the plants have died, 0% activity=like control plants.

Alopecurus myosuroides [2] = experiment: Pre-emergence herbicidal activity against ALOMY; settings: dosage 80 g/ha, scored visually after about 3 weeks vs untreated controls; for pest or weed control at 80 g/ha: Alopecurus myosuroides, 504 h
Description: (§2) 1. Pre-emergence herbicidal action against harmful plants and crop plant compatibility Seeds of monocotyledonous and dicotyledonous weed plants and crop plants are placed in plastic or wood fiber pots and covered with soil. The compounds of the invention, formulated in the form of wettable powders (WP) or as emulsion concentrates (EC), are then applied onto the surface of the covering soil as aqueous suspension or emulsion with addition of 0.5% additive at a water application rate of 600 l/ha (converted). After the treatment, the pots are placed in a greenhouse and kept under good growth conditions for the trial plants. After about 3 weeks, the effect of the preparations is scored visually in comparison with untreated controls as percentages. For example, 100% activity=the plants have died, 0% activity=like control plants. [table]

Stellaria media [3] = experiment: Pre-emergence herbicidal activity against STEME; settings: dosage 80 g/ha, scored visually after about 3 weeks vs untreated controls; for pest or weed control at 80 g/ha: Stellaria media, 504 h
Description: as §2

Polygonum convolvulus [4] = experiment: Pre-emergence herbicidal activity against POLCO; settings: dosage 80 g/ha, scored visually after about 3 weeks vs untreated controls
Description: as §2

Echinochloa crus-galli [5] = experiment: Post-emergence herbicidal activity against ECHCG; settings: dosage 320 g/ha, rated visually after about 3 weeks; for pest or weed control at 320 g/ha: Echinochloa crus-galli, 504 h
Description: as §1

[6] = Pre-emergence herbicidal action against harmful plants (summary of the tables); settings: 504 h, application rate of 0.08 kg of active substance or less per hectare, read-out: herbicidal action, pre-emergence treatment (very good activity)
Description: as §2, with “plants.” for “plants. [table]”
As shown by the results, compounds according to the invention such as, for example, the compounds No. I-02 and other compounds from the tables (I-05, I-10, I-11, I-12, I-13, I-14, I-15, I-16, I-17, I-18, I-19, I-20, I-21, I-22, I-23, I-24, I-25, I-26, I-27, I-28, I-29) have, when used for pre-emergence treatment, very good activity (80% to 100% herbicidal action) against harmful plants such as Abutilon theophrasti, Alopecurus myosuroides, Amaranthus retroflexus, Avena fatua, Cyperus esculentus, Echinochloa crus-galli, Hordeum murinum, Lolium rigidum, Pharbitis purpurea, Polygonum convolvulus, Setaria viridis, Stellaria media, Veronica persica and Viola tricolor at an application rate of 0.08 kg of active substance or less per hectare.

Hordeum murinum [7] = experiment: Pre-emergence herbicidal activity against HORMU; settings: dosage 80 g/ha
Description: as §2

Stellaria media [8] = experiment: Post-emergence herbicidal activity against STEME; settings: dosage 320 g/ha, rated visually after about 3 weeks; for pest or weed control at 320 g/ha: Stellaria media, 504 h
Description: as §1

Setaria viridis [9] = experiment: Post-emergence herbicidal activity against SETVI; settings: dosage 320 g/ha, rated visually after about 3 weeks; for pest or weed control at 320 g/ha: Setaria viridis, 504 h
Description: as §1

Amaranthus retroflexus [10] = experiment: Post-emergence herbicidal activity against AMARE; settings: dosage 320 g/ha, rated visually after about 3 weeks
Description: as §1

Alopecurus myosuroides [11] = experiment: Post-emergence herbicidal activity against ALOMY; settings: dosage 320 g/ha, rated visually after about 3 weeks; for pest or weed control at 320 g/ha: Alopecurus myosuroides, 504 h
Description: as §1

Veronica persica [12] = experiment: Post-emergence herbicidal activity against VERPE; settings: dosage 320 g/ha, rated visually after about 3 weeks; for pest or weed control at 320 g/ha: Veronica persica, 504 h
Description: as §1

Avena fatua [13] = experiment: Pre-emergence herbicidal activity against AVEFA; settings: dosage 80 g/ha, scored visually after about 3 weeks vs untreated controls; for pest or weed control at 80 g/ha: Avena fatua, 504 h, read-out: Pre-emergence herbicidal activity in % against AVEVA (AVEFA)
Description: as §2

Echinochloa crus-galli [14] = experiment: Pre-emergence herbicidal activity against ECHCG; settings: dosage 80 g/ha, scored visually after about 3 weeks vs untreated controls; for pest or weed control at 80 g/ha: Echinochloa crus-galli, 504 h
Description: as §2

Amaranthus retroflexus [15] = experiment: Pre-emergence herbicidal activity against AMARE; settings: dosage 80 g/ha, scored visually after about 3 weeks vs untreated controls; for pest or weed control at 80 g/ha: Amaranthus retroflexus, 504 h
Description: as §2

Pharbitis purpurea = experiment: Post-emergence herbicidal activity against PHBPU; settings: dosage 320 g/ha, rated visually after about 3 weeks; for pest or weed control at 320 g/ha: Ipomoea purpurea, 504 h
Description: as §1

Hordeum murinum [16] = experiment: Post-emergence herbicidal activity against HORMU; settings: dosage 320 g/ha, rated visually after about 3 weeks
Description: as §1

Lolium rigidum [17] = experiment: Pre-emergence herbicidal activity against LOLRI; settings: dosage 80 g/ha, scored visually after about 3 weeks vs untreated controls
Description: as §2

Setaria viridis [18] = experiment: Pre-emergence herbicidal activity against SETVI; settings: dosage 80 g/ha, scored visually after about 3 weeks vs untreated controls
Description: as §2

Avena fatua [19] = experiment: Post-emergence herbicidal activity against AVEFA; settings: dosage 320 g/ha, rated visually after about 3 weeks; for pest or weed control at 320 g/ha: Avena fatua, 504 h
Description: as §1

Viola tricolor [20] = experiment: Post-emergence herbicidal activity against VIOTR; settings: dosage 320 g/ha, rated visually after about 3 weeks
Description: as §1

Veronica persica [21] = experiment: Pre-emergence herbicidal activity against VERPE; settings: dosage 80 g/ha
Description: as §2

Abutilon theophrasti = experiment: Post-emergence herbicidal activity against ABUTH; settings: dosage 320 g/ha, rated visually after about 3 weeks
Description: as §1

Viola tricolor [22] = experiment: Pre-emergence herbicidal activity against VIOTR; settings: dosage 80 g/ha, scored visually after about 3 weeks vs untreated controls
Description: as §2

Polygonum convolvulus [23] = experiment: Post-emergence herbicidal activity against POLCO; settings: dosage 320 g/ha, rated visually after about 3 weeks
Description: as §1

CONC(=O)[C@@H]1C[C@H](NC(=O)C2(C)CC(c3cccc(F)c3)=NO2)CO1 (relative stereo) [Example I-10, 3-(3-fluorophenyl)-N-[cis-5-(methoxycarbamoyl)tetrahydrofuran-3-yl]-5-methyl-4H-isoxazole-5-carboxamide]
pest or weed control at 320 g/ha (Lolium rigidum [1]; Lolium rigidum, 504 h): 90%
pest or weed control at 80 g/ha (Alopecurus myosuroides [2]): 100%
pest or weed control at 80 g/ha (Stellaria media [3]): 90%
pest or weed control at 80 g/ha (Polygonum convolvulus [4]; Fallopia convolvulus, 504 h): 90%
pest or weed control at 320 g/ha (Echinochloa crus-galli [5]): 90%
pest or weed control at 80 g/ha [6]: 80 to 100%
pest or weed control at 80 g/ha (Hordeum murinum [7]; Hordeum murinum, 504 h): 100%
pest or weed control at 320 g/ha (Stellaria media [8]): 80%
pest or weed control at 320 g/ha (Setaria viridis [9]): 90%
pest or weed control at 320 g/ha (Amaranthus retroflexus [10]; Amaranthus retroflexus, 504 h): 80%
pest or weed control at 320 g/ha (Alopecurus myosuroides [11]): 100%
pest or weed control at 320 g/ha (Veronica persica [12]): 80%
pest or weed control at 80 g/ha (Avena fatua [13]): 80%
pest or weed control at 80 g/ha (Echinochloa crus-galli [14]): 80%
pest or weed control at 80 g/ha (Amaranthus retroflexus [15]): 90%
pest or weed control at 320 g/ha (Pharbitis purpurea): 90%
pest or weed control at 320 g/ha (Hordeum murinum [16]; Hordeum murinum, 504 h): 90%
pest or weed control at 80 g/ha (Lolium rigidum [17]; Lolium rigidum, 504 h): 100%
pest or weed control at 80 g/ha (Setaria viridis [18]; Setaria viridis, 504 h): 90%
pest or weed control at 320 g/ha (Avena fatua [19]): 90%

C=CC1(C(=O)N[C@@H]2CO[C@H](C(=O)NC)C2)CC(c2cc(F)cc(F)c2)=NO1 (relative stereo) [Example I-02, 3-(3,5-difluorophenyl)-N-[cis-5-(methylcarbamoyl)tetrahydrofuran-3-yl]-5-vinyl-4H-isoxazole-5-carboxamide]
pest or weed control at 80 g/ha (Alopecurus myosuroides [2]): 90%
pest or weed control at 80 g/ha (Stellaria media [3]): 100%
pest or weed control at 320 g/ha (Echinochloa crus-galli [5]): 80%
pest or weed control at 80 g/ha [6]: 80 to 100%
pest or weed control at 320 g/ha (Stellaria media [8]): 90%
pest or weed control at 320 g/ha (Viola tricolor [20]; Viola tricolor, 504 h): 80%
pest or weed control at 320 g/ha (Setaria viridis [9]): 90%
pest or weed control at 320 g/ha (Alopecurus myosuroides [11]): 100%
pest or weed control at 320 g/ha (Veronica persica [12]): 80%
pest or weed control at 80 g/ha (Avena fatua [13]): 100%
pest or weed control at 80 g/ha (Echinochloa crus-galli [14]): 100%
pest or weed control at 80 g/ha (Amaranthus retroflexus [15]): 100%
pest or weed control at 320 g/ha (Pharbitis purpurea): 90%
pest or weed control at 80 g/ha (Veronica persica [21]; Veronica persica, 504 h): 90%
pest or weed control at 320 g/ha (Abutilon theophrasti; Abutilon theophrasti, 504 h): 80%
pest or weed control at 320 g/ha (Avena fatua [19]): 90%

CN(C)NC(=O)[C@@H]1C[C@H](NC(=O)[C@@]2(C)CC(c3cc(F)cc(F)c3)=NO2)CO1 [Example I-26]
Post-emergence herbicidal activity in % against LOLRI (Lolium rigidum [1]): 100%
Pre-emergence herbicidal activity in % against ALOMY (Alopecurus myosuroides [2]): 100%
Pre-emergence herbicidal activity in % against STEME (Stellaria media [3]): 100%
Pre-emergence herbicidal activity in % against POLCO (Polygonum convolvulus [4]): 90%
Post-emergence herbicidal activity in % against ECHCG (Echinochloa crus-galli [5]): 100%
Pre-emergence herbicidal activity in % against HORMU (Hordeum murinum [7]): 90%
Post-emergence herbicidal activity in % against STEME (Stellaria media [8]): 100%
Post-emergence herbicidal activity in % against VIOTR (Viola tricolor [20]): 90%
Pre-emergence herbicidal activity in % against VIOTR (Viola tricolor [22]): 80%
Post-emergence herbicidal activity in % against SETVI (Setaria viridis [9]): 80%
Post-emergence herbicidal activity in % against AMARE (Amaranthus retroflexus [10]): 80%
Post-emergence herbicidal activity in % against POLCO (Polygonum convolvulus [23]): 80%
Post-emergence herbicidal activity in % against ALOMY (Alopecurus myosuroides [11]): 100%
Post-emergence herbicidal activity in % against VERPE (Veronica persica [12]): 80%
Pre-emergence herbicidal activity in % against AVEVA (AVEFA) (Avena fatua [13]): 90%
Pre-emergence herbicidal activity in % against ECHCG (Echinochloa crus-galli [14]): 90%
Pre-emergence herbicidal activity in % against AMARE (Amaranthus retroflexus [15]): 100%
Post-emergence herbicidal activity in % against PHBPU (Pharbitis purpurea): 90%
Pre-emergence herbicidal activity in % against VERPE (Veronica persica [21]): 80%
Post-emergence herbicidal activity in % against HORMU (Hordeum murinum [16]): 100%
Pre-emergence herbicidal activity in % against LOLRI (Lolium rigidum [17]): 100%
Post-emergence herbicidal activity in % against ABUTH (Abutilon theophrasti): 80%
Pre-emergence herbicidal activity in % against SETVI (Setaria viridis [18]): 90%
Post-emergence herbicidal activity in % against AVEFA (Avena fatua [19]): 100%
